Legend:
Assay in all cases: Post-emergence test experiment (Table 3, 1000 g/ha)
Format in all cases: in vivo
Settings in all cases: post-emergence spray, after 3 weeks, fresh weight inhibition
Abutilon theophrasti = tested on: Abutilon theophrasti
Excerpt: (§1) The activity level standard of harmful plants destruction (i. e. growth inhibition rate) is as follows: • Level 5: the growth inhibition rate is greater than 85%; • Level 4: the growth inhibition rate is equal to or greater than 60% and less than 85%; • Level 3: the growth inhibition rate is equal to or greater than 40% and less than 60%; • Level 2: the growth inhibition rate is equal to or greater than 20% and less than 40%; • Level 1: the growth inhibition rate is equal to or greater than 5% and less than 20%; • Level 0: the growth inhibition rate is less than 5%;
(§2) The above described growth inhibition rate is fresh weight inhibition rate.
(§3) Post-emergence test experiment: Monocotyledonous and dicotyledonous weed seeds and main crop seeds (i. e. wheat, corn, rice, soybean, cotton, oilseed, millet and sorghum.) were put into a plastic pot loaded with soil. Then covered with 0.5-2 cm soil, the seeds were allowed to grow in good greenhouse environment. The test plants were treated at 2-3 leaf stage 2 weeks after sowing. The test compounds of the invention were dissolved with acetone respectively, then added with tween-80, and using 1.5 liters per hectare of an emulsible concentrate of methyl oleate as a synergist, and diluted by certain amount of water to certain concentration. The solution was sprayed to the plants with a sprayer. Then the plants were cultured for 3 weeks in the greenhouse, and the experiment result of weed controlling effect after 3 weeks was listed in tables 3-4.

Setaria viridis = tested on: Setaria viridis
Excerpt: as §1, §2, §3

Digitaria sanguinalis = tested on: Digitaria sanguinalis
Excerpt: as §1, §2, §3

Galium spurium = tested on: Galium spurium
Excerpt: as §1, §2, §3

Leptochloa chinensis = tested on: Leptochloa chinensis
Excerpt: as §1, §2, §3

Monochoria vaginalis = tested on: Monochoria vaginalis
Excerpt: as §1, §2, §3

| SMILES | Activity level (growth inhibition rate) Abutilon theophrasti (Abutilon theophrasti) | Activity level (growth inhibition rate) Setaria viridis (Setaria viridis) | Activity level (growth inhibition rate) Digitaria sanguinalis (Digitaria sanguinalis) | Activity level (growth inhibition rate) Galium spurium (Galium spurium) | Activity level (growth inhibition rate) Leptochloa chinensis (Leptochloa chinensis) | Activity level (growth inhibition rate) Monochoria Vaginalis (Monochoria vaginalis) |
| --- | --- | --- | --- | --- | --- | --- |
| CSC(=O)C(C)Oc1nc(F)c(Cl)c(N)c1C1CC1 (stereo not drawn) [Compound 22] | 5 (Level 5: the growth inhibition rate is greater than 85%) | 5 (Level 5: the growth inhibition rate is greater than 85%) | 5 (Level 5: the growth inhibition rate is greater than 85%) | 5 (Level 5: the growth inhibition rate is greater than 85%) | 5 (Level 5: the growth inhibition rate is greater than 85%) | 5 (Level 5: the growth inhibition rate is greater than 85%) |
| CSC(=O)C(C)Oc1nc(C(F)(F)F)c(Cl)c(N)c1Cl (stereo not drawn) [Compound 6] | 5 (Level 5: the growth inhibition rate is greater than 85%) | 5 (Level 5: the growth inhibition rate is greater than 85%) | 5 (Level 5: the growth inhibition rate is greater than 85%) | 5 (Level 5: the growth inhibition rate is greater than 85%) | 5 (Level 5: the growth inhibition rate is greater than 85%) | 5 (Level 5: the growth inhibition rate is greater than 85%) |
| CCCCCCC(C)SC(=O)C(C)Oc1nc(F)c(Cl)c(N)c1Cl (stereo not drawn) [Compound 135] | 5 (Level 5: the growth inhibition rate is greater than 85%) | 5 (Level 5: the growth inhibition rate is greater than 85%) | 5 (Level 5: the growth inhibition rate is greater than 85%) | 5 (Level 5: the growth inhibition rate is greater than 85%) | 5 (Level 5: the growth inhibition rate is greater than 85%) | 5 (Level 5: the growth inhibition rate is greater than 85%) |
| COSC(=O)C(C)Oc1nc(F)c(Cl)c(N)c1Cl (stereo not drawn) [Compound 83] | 5 (Level 5: the growth inhibition rate is greater than 85%) | 5 (Level 5: the growth inhibition rate is greater than 85%) | 5 (Level 5: the growth inhibition rate is greater than 85%) | 5 (Level 5: the growth inhibition rate is greater than 85%) | 5 (Level 5: the growth inhibition rate is greater than 85%) | 5 (Level 5: the growth inhibition rate is greater than 85%) |
| CCOC(=O)CSC(=O)C(C)Oc1nc(F)c(Cl)c(N)c1Cl (stereo not drawn) [Compound 94] | 5 (Level 5: the growth inhibition rate is greater than 85%) | 5 (Level 5: the growth inhibition rate is greater than 85%) | 5 (Level 5: the growth inhibition rate is greater than 85%) | 5 (Level 5: the growth inhibition rate is greater than 85%) | 5 (Level 5: the growth inhibition rate is greater than 85%) | 5 (Level 5: the growth inhibition rate is greater than 85%) |
| CCCCCCCCCSC(=O)C(C)Oc1nc(F)c(Cl)c(N)c1Cl (stereo not drawn) [Compound 140] | 5 (Level 5: the growth inhibition rate is greater than 85%) | 5 (Level 5: the growth inhibition rate is greater than 85%) | 5 (Level 5: the growth inhibition rate is greater than 85%) | 5 (Level 5: the growth inhibition rate is greater than 85%) | 5 (Level 5: the growth inhibition rate is greater than 85%) | 5 (Level 5: the growth inhibition rate is greater than 85%) |
| CC(C)SC(=O)C(C)Oc1nc(F)c(Cl)c(N)c1Cl (stereo not drawn) [Compound 68] | 5 (Level 5: the growth inhibition rate is greater than 85%) | 5 (Level 5: the growth inhibition rate is greater than 85%) | 5 (Level 5: the growth inhibition rate is greater than 85%) | 5 (Level 5: the growth inhibition rate is greater than 85%) | 5 (Level 5: the growth inhibition rate is greater than 85%) | 5 (Level 5: the growth inhibition rate is greater than 85%) |
| CC(Oc1nc(F)c(Cl)c(N)c1Cl)C(=O)SC(C)C(C)C (stereo not drawn) [Compound 147] | 5 (Level 5: the growth inhibition rate is greater than 85%) | 5 (Level 5: the growth inhibition rate is greater than 85%) | 5 (Level 5: the growth inhibition rate is greater than 85%) | 5 (Level 5: the growth inhibition rate is greater than 85%) | 5 (Level 5: the growth inhibition rate is greater than 85%) | 5 (Level 5: the growth inhibition rate is greater than 85%) |
| COC(=O)C(NC(=O)OC(C)(C)C)SC(=O)C(C)Oc1nc(F)c(Cl)c(N)c1Cl (stereo not drawn) [Compound 104] | 5 (Level 5: the growth inhibition rate is greater than 85%) | 5 (Level 5: the growth inhibition rate is greater than 85%) | 5 (Level 5: the growth inhibition rate is greater than 85%) | 5 (Level 5: the growth inhibition rate is greater than 85%) | 5 (Level 5: the growth inhibition rate is greater than 85%) | 5 (Level 5: the growth inhibition rate is greater than 85%) |
| CCCCCCCCSC(=O)C(C)Oc1nc(F)c(Cl)c(N)c1Cl (stereo not drawn) [Compound 73] | 5 (Level 5: the growth inhibition rate is greater than 85%) | 5 (Level 5: the growth inhibition rate is greater than 85%) | 5 (Level 5: the growth inhibition rate is greater than 85%) | 5 (Level 5: the growth inhibition rate is greater than 85%) | 5 (Level 5: the growth inhibition rate is greater than 85%) | 5 (Level 5: the growth inhibition rate is greater than 85%) |
| CC(Oc1nc(F)c(Cl)c(N)c1Cl)C(=O)Sc1cccn1C (stereo not drawn) [Compound 122] | 5 (Level 5: the growth inhibition rate is greater than 85%) | 5 (Level 5: the growth inhibition rate is greater than 85%) | 5 (Level 5: the growth inhibition rate is greater than 85%) | 5 (Level 5: the growth inhibition rate is greater than 85%) | 5 (Level 5: the growth inhibition rate is greater than 85%) | 5 (Level 5: the growth inhibition rate is greater than 85%) |
| Cc1cn(C)nc1SC(=O)C(C)Oc1nc(F)c(Cl)c(N)c1Cl (stereo not drawn) [Compound 119] | 5 (Level 5: the growth inhibition rate is greater than 85%) | 5 (Level 5: the growth inhibition rate is greater than 85%) | 5 (Level 5: the growth inhibition rate is greater than 85%) | 5 (Level 5: the growth inhibition rate is greater than 85%) | 5 (Level 5: the growth inhibition rate is greater than 85%) | 5 (Level 5: the growth inhibition rate is greater than 85%) |
| CC(Oc1nc(F)c(Cl)c(N)c1Cl)C(=O)Sc1cccs1 (stereo not drawn) [Compound 121] | 5 (Level 5: the growth inhibition rate is greater than 85%) | 5 (Level 5: the growth inhibition rate is greater than 85%) | 5 (Level 5: the growth inhibition rate is greater than 85%) | 5 (Level 5: the growth inhibition rate is greater than 85%) | 5 (Level 5: the growth inhibition rate is greater than 85%) | 5 (Level 5: the growth inhibition rate is greater than 85%) |
